Our source for the EC50 and Emax values is patent publication US20230265151A1, “GIP/GLP1 CO-AGONIST COMPOUNDS” (priority 2020, published 2023).

As a reminder, the EC50 is the concentration that produces a half-maximal response. As a reminder, the Emax is the greatest response seen or fitted, relative to the assay's reference.

What all share (format): cell-based
The target of assay [1] is T1, hGCGR (Homo sapiens, UniProt P47871).
T1 construct: expressed in transfected cells
The assay is described as follows: Functional cAMP formation (HTRF) in HEK-293 clonal cells expressing hGCGR, 0.1% bovine casein, without or with 1.0% human serum albumin. To be noted: geometric mean. A digest of the protocol: (§1)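 Readings of the HTRF 665/620 nm ratio, which falls as cAMP rises, were converted to nM cAMP using a standard curve after 30 min peptide exposure at 37° C.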

Assay [2] has as its target T2, hGIPR (Homo sapiens, UniProt P48546).
T2 construct: expressed in transfected cells
T2 sequence (P48546 22-466): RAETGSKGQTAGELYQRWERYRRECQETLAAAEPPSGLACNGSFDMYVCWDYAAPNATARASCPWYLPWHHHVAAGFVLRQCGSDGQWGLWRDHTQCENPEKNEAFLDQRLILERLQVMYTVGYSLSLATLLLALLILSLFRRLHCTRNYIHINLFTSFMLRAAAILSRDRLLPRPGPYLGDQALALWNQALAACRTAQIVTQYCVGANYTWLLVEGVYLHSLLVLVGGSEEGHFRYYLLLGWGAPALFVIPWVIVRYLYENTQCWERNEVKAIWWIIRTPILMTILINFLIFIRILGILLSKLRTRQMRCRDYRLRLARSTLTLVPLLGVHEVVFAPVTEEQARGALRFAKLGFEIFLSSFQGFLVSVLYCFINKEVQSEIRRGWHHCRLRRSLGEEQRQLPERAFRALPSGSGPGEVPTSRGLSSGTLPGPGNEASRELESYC
Briefly: Functional cAMP formation (HTRF) in HEK-293 clonal cells expressing hGIPR, 0.1% bovine casein, without or with 1.0% human serum albumin. To be noted: for Emax: read-out: hGIPR Emax, % ± SEM; for EC50: geometric mean. A digest of the protocol:
as §1

For assay [3], the target named is hGLP-1R (Homo sapiens, UniProt P43220). The assay is described as follows: Functional cAMP formation (HTRF) in HEK-293 clonal cells expressing hGLP-1R, 0.1% bovine casein, without or with 1.0% human serum albumin. Details: expressed in transfected cells. The following applies: for Emax: 37° C.; for EC50: cAMP, incubated at 37° C., 0.1% bovine casein (no human serum albumin), geometric mean, read-out: hGLP-1R EC50, nM (SEM, n). In a few lines: as §1
Background: Changes in cAMP serve as a functional read-out for many G protein-coupled receptors.

Setting [4] is: 0.1% bovine casein and 1.0% human serum albumin, 37° C., read-out: hGCGR EC50, nM (SEM, n).
[5] abbreviates: cAMP, incubated at 37° C., 0.1% bovine casein (no human serum albumin), read-out: hGCGR EC50, nM (SEM, n).
Where [6] appears, read: HEK293, 0.1% bovine casein and 1.0% human serum albumin, 37° C., percent of maximal response to GIP(1-42)NH2.
[7] abbreviates: HEK293, percent of maximal response to GLP-1(7-36)NH2, 0.1% bovine casein, arithmetic mean, read-out: hGLP-1R Emax, % ± SEM.
[8] abbreviates: HEK293, percent of maximal response to GIP(1-42)NH2, 37° C., 0.1% bovine casein, arithmetic mean.

Structures are written as SMILES. Read-outs that look alike come from different tables or passages of the source. *1 amine or outer side, *2 acyl side, *3 side chain or, on linkers, in order; H or OH if unused. Where a SMILES comes first, the peptide text is derived from it. Side-chain parts run from the residue outwards. [ ]: non-standard residue; d: D form. The star is where a group is joined. γGlu = O=C(O)[C@H](CCC(=O)[*:2])N[*:1]; C14 diacid = O=C(O)CCCCCCCCCCCCC(=O)*; αMeY = C[C@](N)(Cc1ccc(O)cc1)C(=O)O; αMeF = C[C@](N)(Cc1ccccc1)C(=O)O; αMeL = CC(C)C[C@](C)(N)C(=O)O; Orn = NCCC[C@H](N)C(=O)O; AEEA = NCCOCCOCC(=O)O; Aib = CC(C)(N)C(=O)O

Chain of hGLP-1R (P43220 24-463): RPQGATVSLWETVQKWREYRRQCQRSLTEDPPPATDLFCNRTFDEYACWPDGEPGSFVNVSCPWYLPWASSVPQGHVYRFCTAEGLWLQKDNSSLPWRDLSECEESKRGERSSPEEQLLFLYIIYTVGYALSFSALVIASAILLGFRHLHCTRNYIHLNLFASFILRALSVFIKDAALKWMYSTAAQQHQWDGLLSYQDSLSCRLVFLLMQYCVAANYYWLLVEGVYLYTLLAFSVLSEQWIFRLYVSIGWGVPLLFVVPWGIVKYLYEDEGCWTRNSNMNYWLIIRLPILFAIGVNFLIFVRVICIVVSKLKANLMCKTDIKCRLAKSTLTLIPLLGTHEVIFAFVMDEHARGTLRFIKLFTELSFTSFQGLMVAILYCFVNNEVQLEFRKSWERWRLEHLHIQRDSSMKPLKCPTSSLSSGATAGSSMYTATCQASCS
T1 sequence (P47871 26-477): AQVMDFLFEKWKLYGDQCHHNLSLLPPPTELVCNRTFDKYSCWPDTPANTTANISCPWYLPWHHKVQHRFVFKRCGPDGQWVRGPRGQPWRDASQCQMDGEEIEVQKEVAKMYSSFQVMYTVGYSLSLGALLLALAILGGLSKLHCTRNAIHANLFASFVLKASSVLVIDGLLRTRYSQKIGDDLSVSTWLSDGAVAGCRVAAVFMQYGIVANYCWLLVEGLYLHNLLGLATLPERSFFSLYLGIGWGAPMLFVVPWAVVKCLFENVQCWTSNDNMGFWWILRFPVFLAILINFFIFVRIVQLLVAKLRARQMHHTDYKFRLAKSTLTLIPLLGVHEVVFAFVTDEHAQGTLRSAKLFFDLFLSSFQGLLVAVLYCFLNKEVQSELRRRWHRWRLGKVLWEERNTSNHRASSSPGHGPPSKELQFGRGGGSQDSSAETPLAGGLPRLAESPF

`CC[C@H](C)[C@H](NC(=O)[C@H](CCCN)NC(=O)[C@H](CC(=O)O)NC(=O)[C@H](CC(C)C)NC(=O)[C@](C)(CC(C)C)NC(=O)[C@@H](NC(=O)[C@H](CO)NC(=O)[C@H](Cc1ccncc1)NC(=O)[C@H](CC(=O)O)NC(=O)[C@H](CO)NC(=O)[C@@H](NC(=O)[C@](C)(Cc1ccccc1F)NC(=O)[C@@H](NC(=O)CNC(=O)[C@H](CCC(=O)O)NC(=O)C(C)(C)NC(=O)[C@@H](N)Cc1ccc(O)cc1)[C@@H](C)O)[C@@H](C)O)[C@@H](C)CC)C(=O)N[C@@H](C)C(=O)N[C@@H](CCC(N)=O)C(=O)NC(C)(C)C(=O)N[C@@H](CCCCNC(=O)COCCOCCNC(=O)COCCOCCNC(=O)COCCOCCNC(=O)CC[C@H](NC(=O)CCCCCCCCCCCCC(=O)O)C(=O)O)C(=O)N[C@@H](Cc1ccccc1)C(=O)N[C@H](C(=O)N[C@H](CCC(=O)O)C(=O)N[C@@](C)(Cc1ccc(O)cc1)C(=O)N[C@@H](CC(C)C)C(=O)N[C@H](C(=O)N[C@@H](CCCCNC(=O)COCCOCCNC(=O)COCCOCCNC(=O)COCCOCCNC(=O)CC[C@H](NC(=O)CCCCCCCCCCCCC(=O)O)C(=O)O)C(=O)NCC(=O)NCC(=O)N1CCC[C@H]1C(=O)N[C@@H](CO)C(=O)N[C@@H](CO)C(=O)NCC(=O)N[C@@H](C)C(=O)N1CCC[C@H]1C(=O)N1CCC[C@H]1C(=O)N1CCC[C@H]1C(=O)N[C@@H](CO)C(N)=O)[C@@H](C)CC)[C@@H](C)CC` [Example 227]: the half-maximal effective concentration (EC50) in assay [1] (setting [4]) is greater than 9950 nM; in assay [1] (setting [5]), greater than 9950 nM; in assay [3], 1.22 nM. Also, the maximal effect (Emax) in assay [2] (setting [6]) stood at 76.1%; in assay [3] (HEK293, 0.1% bovine casein and 1.0% human serum albumin, percent of maximal response to GLP-1(7-36)NH2, read-out: hGLP-1R Emax, % ± SEM), 111%; in assay [3] (setting [7]), 96.1%.

For `CC[C@H](C)[C@H](NC(=O)[C@H](CC(C)C)NC(=O)[C@](C)(Cc1ccc(O)cc1)NC(=O)[C@@H](CCC(=O)O)NC(=O)[C@@H](NC(=O)[C@H](Cc1ccccc1)NC(=O)[C@H](CCC(=O)O)NC(=O)C(C)(C)NC(=O)[C@H](CCC(N)=O)NC(=O)[C@H](C)NC(=O)[C@H](CCCCNC(=O)COCCOCCNC(=O)COCCOCCNC(=O)CC[C@H](NC(=O)CCCCCCCCCCCCC(=O)O)C(=O)O)NC(=O)[C@H](CCCN)NC(=O)[C@H](CC(=O)O)NC(=O)[C@H](CC(C)C)NC(=O)[C@](C)(CC(C)C)NC(=O)[C@@H](NC(=O)[C@H](CO)NC(=O)[C@@H](NC(=O)[C@H](CC(=O)O)NC(=O)[C@H](CO)NC(=O)[C@@H](NC(=O)[C@](C)(Cc1ccccc1)NC(=O)[C@@H](NC(=O)CNC(=O)[C@H](CCC(=O)O)NC(=O)C(C)(C)NC(=O)[C@@H](N)Cc1ccc(O)cc1)[C@@H](C)O)[C@@H](C)O)C(C)C)[C@@H](C)CC)[C@@H](C)CC)C(=O)N[C@@H](CCC(=O)O)C(=O)NCC(=O)NCC(=O)N[C@@H](CCCCNC(=O)COCCOCCNC(=O)COCCOCCNC(=O)CC[C@H](NC(=O)CCCCCCCCCCCCC(=O)O)C(=O)O)C(=O)N[C@@H](CO)C(=O)N[C@@H](CO)C(=O)NCC(=O)N[C@@H](C)C(=O)N1CCC[C@H]1C(=O)N1CCC[C@H]1C(=O)N1CCC[C@H]1C(=O)N[C@@H](CO)C(N)=O` [Example 179] (H-Y[Aib]EGT[αMeF]TSDVSI[αMeL]LD[Orn]K([AEEA-AEEA-γGlu-C14 diacid])AQ[Aib]EFI[dE][αMeY]LIEGGK([AEEA-AEEA-γGlu-C14 diacid])SSGAPPPS-NH2), the 50% effective concentration (EC50) in assay [1] (setting [5]) was greater than 9950 nM. The maximal response (Emax) turned out to be 91% in assay [2] (setting [8]) and 99% in assay [3] (setting [7]).

Consider `CC[C@H](C)[C@H](NC(=O)[C@H](CC(C)C)NC(=O)[C@](C)(Cc1ccc(O)cc1)NC(=O)[C@H](CCCCNC(=O)COCCOCCNC(=O)COCCOCCNC(=O)[C@@H](N)CCCCNC(=O)CCCCCCCCCCCCC(=O)O)NC(=O)[C@@H](NC(=O)[C@H](Cc1ccccc1)NC(=O)[C@H](CCC(=O)O)NC(=O)C(C)(C)NC(=O)[C@H](CCC(N)=O)NC(=O)[C@H](C)NC(=O)[C@H](CCCCNC(=O)COCCOCCNC(=O)COCCOCCNC(=O)[C@@H](N)CCCCNC(=O)CCCCCCCCCCCCC(=O)O)NC(=O)[C@H](CCCN)NC(=O)[C@H](CC(=O)O)NC(=O)[C@H](CC(C)C)NC(=O)[C@](C)(CC(C)C)NC(=O)[C@@H](NC(=O)[C@H](CO)NC(=O)[C@H](Cc1ccncc1)NC(=O)[C@H](CC(=O)O)NC(=O)[C@H](CO)NC(=O)[C@@H](NC(=O)[C@](C)(Cc1ccccc1F)NC(=O)[C@@H](NC(=O)CNC(=O)[C@H](CCC(=O)O)NC(=O)C(C)(C)NC(=O)[C@@H](N)Cc1ccc(O)cc1)[C@@H](C)O)[C@@H](C)O)[C@@H](C)CC)[C@@H](C)CC)C(=O)N[C@@H](CCC(=O)O)C(=O)NCC(=O)NCC(=O)N1CCC[C@H]1C(=O)N[C@@H](CO)C(=O)N[C@@H](CO)C(=O)NCC(=O)N[C@@H](C)C(=O)N1CCC[C@H]1C(=O)N1CCC[C@H]1C(=O)N1CCC[C@H]1C(=O)N[C@@H](CO)C(N)=O` [Example 160], for which the EC50 is greater than 9950 nM in assay [1] (hGCGR EC50, nM (SEM, n), cAMP, incubated at 37° C., 0.1% bovine casein (no human serum albumin)) and 0.0197 nM in assay [2] (hGIPR EC50, nM (SEM, n), cAMP, incubated at 37° C., 0.1% bovine casein (no human serum albumin)). The Emax in assay [3] (HEK293, read-out: hGLP-1R Emax, % ± SEM, percent of maximal response to GLP-1(7-36)NH2, 0.1% bovine casein, arithmetic mean) was 93.6%.

On to `CC[C@H](C)[C@H](NC(=O)[C@H](CC(C)C)NC(=O)[C@](C)(Cc1ccc(O)cc1)NC(=O)[C@@H](CCC(=O)O)NC(=O)[C@@H](NC(=O)[C@H](Cc1ccccc1)NC(=O)[C@H](CCC(=O)O)NC(=O)C(C)(C)NC(=O)[C@H](CCC(N)=O)NC(=O)[C@H](C)NC(=O)[C@H](CCCCNC(=O)COCCOCCNC(=O)COCCOCCNC(=O)COCCOCCNC(=O)CC[C@H](NC(=O)CCCCCCCCCCCCC(=O)O)C(=O)O)NC(=O)[C@H](CCCN)NC(=O)[C@H](CC(=O)O)NC(=O)[C@H](CC(C)C)NC(=O)[C@](C)(CC(C)C)NC(=O)[C@@H](NC(=O)[C@H](CO)NC(=O)[C@H](Cc1ccncc1)NC(=O)[C@H](CC(=O)O)NC(=O)[C@H](CO)NC(=O)[C@@H](NC(=O)[C@](C)(Cc1ccccc1F)NC(=O)[C@@H](NC(=O)CNC(=O)[C@H](CCC(=O)O)NC(=O)C(C)(C)NC(=O)[C@@H](N)Cc1ccc(O)cc1)[C@@H](C)O)[C@@H](C)O)[C@@H](C)CC)[C@@H](C)CC)C(=O)N[C@@H](CCCCNC(=O)COCCOCCNC(=O)COCCOCCNC(=O)COCCOCCNC(=O)CC[C@H](NC(=O)CCCCCCCCCCCCC(=O)O)C(=O)O)C(=O)NCC(=O)NCC(=O)N1CCC[C@H]1C(=O)N[C@@H](CO)C(=O)N[C@@H](CO)C(=O)NCC(=O)N[C@@H](C)C(=O)N1CCC[C@H]1C(=O)N1CCC[C@H]1C(=O)N1CCC[C@H]1C(=O)N[C@@H](CO)C(N)=O` [Example 224], for which the EC50 is greater than 9950 nM in assay [1] (setting [4]); greater than 9950 nM in assay [1] (setting [5]); 2.92 nM in assay [2] (0.1% bovine casein and 1.0% human serum albumin, 37° C., read-out: hGIPR EC50, nM (SEM, n)); 7.51 nM in assay [3]. Further, the maximal effect (Emax) in assay [2] (setting [6]) was found to be 90.6%; in assay [2] (setting [8]), 109%; in assay [3] (setting [7]) it was 88.4%.
